The results in this text go back to ChEMBL document CHEMBL1909046, “DrugMatrix in vitro pharmacology data”.

One test concerns the target T1, Endothelin-1 receptor (Homo sapiens, UniProt P25101). Further: in other assays of this panel Not Active means under 50% inhibition at 10 µM.
T1 sequence (P25101 whole entry): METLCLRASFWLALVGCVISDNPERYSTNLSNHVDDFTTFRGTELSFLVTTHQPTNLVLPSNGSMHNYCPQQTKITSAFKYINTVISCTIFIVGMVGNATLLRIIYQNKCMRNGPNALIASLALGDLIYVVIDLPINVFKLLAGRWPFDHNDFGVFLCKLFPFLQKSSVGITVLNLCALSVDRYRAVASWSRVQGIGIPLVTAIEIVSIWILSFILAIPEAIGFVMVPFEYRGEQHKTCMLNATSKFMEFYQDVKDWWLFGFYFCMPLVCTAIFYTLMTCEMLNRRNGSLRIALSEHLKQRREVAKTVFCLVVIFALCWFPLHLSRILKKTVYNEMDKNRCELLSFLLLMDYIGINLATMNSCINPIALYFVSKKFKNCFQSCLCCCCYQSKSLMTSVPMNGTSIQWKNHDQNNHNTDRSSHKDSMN
Format: cell membranes, Membrane. Particulars: cho-k1.

Another test concerns the target Histamine H2 receptor (Homo sapiens, UniProt P25021). Format: cell membranes, CHO-K1, Membrane. Further: in other assays of this panel Not Active means under 50% inhibition at 10 µM.
Test [1] can be described thus: DRUGMATRIX: Imidazoline I2, Central radioligand binding (ligand: [3H] Idazoxan). Format: cell membranes, Rattus norvegicus, Wistar, Cerebral cortex, Membrane. Particulars: Not Active = under 50% inhibition at 10 µM.
Test [2] deals with T2, Cysteinyl leukotriene receptor 1 (Homo sapiens, UniProt Q9Y271).
T2 sequence (Q9Y271 whole entry): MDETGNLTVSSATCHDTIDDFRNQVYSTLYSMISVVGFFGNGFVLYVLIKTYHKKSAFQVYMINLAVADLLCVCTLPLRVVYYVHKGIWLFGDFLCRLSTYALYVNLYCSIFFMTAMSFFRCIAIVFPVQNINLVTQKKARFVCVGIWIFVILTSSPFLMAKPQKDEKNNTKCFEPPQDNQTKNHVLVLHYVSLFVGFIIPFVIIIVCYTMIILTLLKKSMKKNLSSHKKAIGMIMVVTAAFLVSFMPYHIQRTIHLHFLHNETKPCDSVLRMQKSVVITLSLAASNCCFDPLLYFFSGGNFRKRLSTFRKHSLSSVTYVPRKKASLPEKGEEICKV
Format: cell membranes, Membrane. Particulars: cho-k1.

Test [3] concerns the target T3, Muscarinic acetylcholine receptor M4 (Homo sapiens, UniProt P08173). Further: in other assays of this panel Not Active means under 50% inhibition at 10 µM.
T3 sequence (P08173 whole entry): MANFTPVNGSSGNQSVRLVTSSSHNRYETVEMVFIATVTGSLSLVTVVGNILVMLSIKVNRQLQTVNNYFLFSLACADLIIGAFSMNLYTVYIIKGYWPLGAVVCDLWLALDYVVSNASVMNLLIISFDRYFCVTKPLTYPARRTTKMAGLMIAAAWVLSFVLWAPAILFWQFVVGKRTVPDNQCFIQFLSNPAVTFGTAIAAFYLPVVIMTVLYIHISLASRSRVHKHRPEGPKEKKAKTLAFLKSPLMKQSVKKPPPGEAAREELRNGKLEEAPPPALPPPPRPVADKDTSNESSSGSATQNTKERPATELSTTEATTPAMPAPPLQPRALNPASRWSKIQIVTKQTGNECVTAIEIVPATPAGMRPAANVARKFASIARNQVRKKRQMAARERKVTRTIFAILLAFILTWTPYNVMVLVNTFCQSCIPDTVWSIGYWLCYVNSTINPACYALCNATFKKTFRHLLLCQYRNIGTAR
In kind it is cell membranes, CHO-K1, Membrane.

In test [4] the target is Tyrosine-protein kinase Fyn (Homo sapiens, UniProt P06241). The test is described as follows: biochemical. In kind it is cell-based, Insect cells. The note with it: insect cells.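 Further: enzymatic inhibition of Fyn kinase activity measured with Poly(Glu:Tyr) as the phosphorylation substrate; in other assays of this panel Not Active means under 50% inhibition at 10 µM.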
Chain of Tyrosine-protein kinase Fyn (P06241 whole entry): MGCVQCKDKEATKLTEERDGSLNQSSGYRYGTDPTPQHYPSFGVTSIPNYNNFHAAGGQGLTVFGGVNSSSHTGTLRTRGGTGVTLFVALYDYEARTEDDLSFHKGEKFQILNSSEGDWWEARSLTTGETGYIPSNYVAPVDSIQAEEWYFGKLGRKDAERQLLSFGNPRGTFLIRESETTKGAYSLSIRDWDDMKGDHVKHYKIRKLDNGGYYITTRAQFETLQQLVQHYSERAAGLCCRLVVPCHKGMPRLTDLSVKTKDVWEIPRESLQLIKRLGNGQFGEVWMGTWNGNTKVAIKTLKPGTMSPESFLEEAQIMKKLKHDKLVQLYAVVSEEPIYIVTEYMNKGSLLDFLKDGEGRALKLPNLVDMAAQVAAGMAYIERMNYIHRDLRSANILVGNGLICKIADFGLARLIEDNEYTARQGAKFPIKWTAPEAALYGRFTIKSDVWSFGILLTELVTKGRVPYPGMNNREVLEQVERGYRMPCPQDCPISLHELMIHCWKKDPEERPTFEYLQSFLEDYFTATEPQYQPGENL

Chain of Histamine H2 receptor (P25021 whole entry): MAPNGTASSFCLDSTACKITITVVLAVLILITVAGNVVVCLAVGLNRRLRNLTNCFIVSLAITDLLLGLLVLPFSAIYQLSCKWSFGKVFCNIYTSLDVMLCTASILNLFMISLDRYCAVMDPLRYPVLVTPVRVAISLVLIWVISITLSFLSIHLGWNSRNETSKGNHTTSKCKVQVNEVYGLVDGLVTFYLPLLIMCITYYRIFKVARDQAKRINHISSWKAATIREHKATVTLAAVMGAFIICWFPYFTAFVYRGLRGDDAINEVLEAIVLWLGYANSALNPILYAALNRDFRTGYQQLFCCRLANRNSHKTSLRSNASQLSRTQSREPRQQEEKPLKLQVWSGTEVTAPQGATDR

As a reminder, the IC50 is the concentration that inhibits the measured activity by half. What is called Ki is a dissociation constant, usually derived from enzyme kinetics or from competition with a known ligand. Take `NC(=O)c1cccnc1` [NIACINAMIDE]: the half-inhibitory concentration (IC50) entry (against Endothelin-1 receptor; at Histamine H2 receptor (cho-k1); in test [1]; in test [2]; in test [3] (cho-k1); in test [4]) was “Not Active” each time. The Ki entry in test [1] was “Not Active”.
Regarding `CS(=O)(=O)Nc1ccc([N+](=O)[O-])cc1Oc1ccccc1` [NIMESULIDE], the IC50 result (on Endothelin-1 receptor; at Histamine H2 receptor (cho-k1); in test [1]; in test [2]; in test [3] (cho-k1); in test [4]) was “Not Active” in each case. In addition, the Ki entry in test [1] is “Not Active”.
As to `CN1C(=O)CN=C(c2ccccc2)c2cc([N+](=O)[O-])ccc21` [NIMETAZEPAM], the IC50 entry (against Endothelin-1 receptor; at Histamine H2 receptor (cho-k1); in test [1]; in test [2]; in test [3] (cho-k1); in test [4]) was “Not Active” throughout. The Ki entry in test [1] is reported as “Not Active”.
As to `COc1ccc2c(c1OC)C(=O)O[C@@H]2[C@H]1c2c(cc3c(c2OC)OCO3)CCN1C` [NOSCAPINE], the IC50 result (against Endothelin-1 receptor; against Histamine H2 receptor (cho-k1); in test [1]; in test [2]; in test [3] (cho-k1); in test [4]) was “Not Active” throughout. For the same molecule, in test [1], the Ki entry is listed as “Not Active”.
For `C[C@@H]1O[C@@H](O[C@H]2C[C@@H](O)[C@]3(CO)[C@H]4[C@H](O)C[C@]5(C)[C@@H](C6=CC(=O)OC6)CC[C@]5(O)[C@@H]4CC[C@]3(O)C2)[C@H](O)[C@H](O)[C@H]1O` [OUABAIN], the IC50 entry (at Endothelin-1 receptor; against Histamine H2 receptor (cho-k1); in test [1]; in test [2]; in test [3] (cho-k1); in test [4]) was “Not Active” throughout. Also, the Ki result in test [1] was “Not Active”.
Take `NC(=O)N1c2ccccc2CC(=O)c2ccccc21` [OXCARBAZEPINE]: the IC50 entry (on Endothelin-1 receptor; on Histamine H2 receptor (cho-k1); in test [1]; in test [2]; in test [3] (cho-k1); in test [4]) was “Not Active” in each case. Moreover, the Ki result in test [1] is “Not Active”.
Turning to `COc1ccnc(C[S+]([O-])c2nc3ccc(OC(F)F)cc3[nH]2)c1OC` (stereo not drawn) [PANTOPRAZOLE], the IC50 result (against Endothelin-1 receptor; at Histamine H2 receptor (cho-k1); in test [1]; in test [2]; in test [3] (cho-k1); in test [4]) was “Not Active” throughout. The Ki entry in test [1] is reported as “Not Active”.
As to `N=C(N)c1ccc(OCCCCCOc2ccc(C(=N)N)cc2)cc1` [PENTAMIDINE], the IC50 result against Endothelin-1 receptor was “Not Active”; at Histamine H2 receptor (cho-k1) it was “Not Active”; in test [1] (read-out: IC50) it was 3.52 µM; in test [2], “Not Active”; in test [3] (read-out: IC50) it was 1.58 µM; in test [4] it was “Not Active”. Also, the Ki in test [1] (read-out: Ki) amounted to 2.35 µM; in test [3] (read-out: Ki), 0.22 µM.
With `NNCCc1ccccc1` [PHENELZINE], the IC50 result (against Endothelin-1 receptor; against Histamine H2 receptor (cho-k1); in test [1]; in test [2]; in test [3] (cho-k1); in test [4]) was “Not Active” throughout. Also, the Ki entry in test [1] is recorded as “Not Active”.
`CCc1ccc(CCOc2ccc(CC3SC(=O)NC3=O)cc2)nc1` (stereo not drawn) [PIOGLITAZONE]: the IC50 result (against Endothelin-1 receptor; at Histamine H2 receptor (cho-k1); in test [1]; in test [2]; in test [3] (cho-k1); in test [4]) was “Not Active” throughout. The Ki result in test [1] is recorded as “Not Active”.
On to `CCCNC(C)C(=O)Nc1ccccc1C` (stereo not drawn) [PRILOCAINE], for which the half-maximal inhibitory concentration (IC50) result (against Endothelin-1 receptor; against Histamine H2 receptor (cho-k1); in test [1]; in test [2]; in test [3] (cho-k1); in test [4]) was “Not Active” throughout. The Ki entry in test [1] is listed as “Not Active”.
Turning to `CCN(CC)CCNC(=O)c1ccc(N)cc1` [PROCAINAMIDE], the IC50 entry (against Endothelin-1 receptor; on Histamine H2 receptor (cho-k1); in test [1]; in test [2]; in test [3] (cho-k1); in test [4]) was “Not Active” throughout. Also, the Ki result in test [1] was “Not Active”.
As for `CCN(CC)CCCC(C)Nc1c2ccc(Cl)cc2nc2ccc(OC)cc12` (stereo not drawn) [QUINACRINE], the IC50 result against Endothelin-1 receptor was “Not Active”; at Histamine H2 receptor (read-out: IC50), 3.54 µM; in test [1] (read-out: IC50), 1.52 µM; in test [2], “Not Active”; in test [3] (read-out: IC50), 1.98 µM; in test [4], “Not Active”. The Ki at Histamine H2 receptor (read-out: Ki) was 3.48 µM; in test [1] (read-out: Ki), 1.01 µM; in test [3] (read-out: Ki), 0.277 µM.
In the case of `C[C@]12C=CC(=O)C=C1CC[C@H]1[C@@H]3C[C@@H](O)[C@](O)(C(=O)CO)[C@@]3(C)C[C@H](O)[C@@]12F` [TRIAMCINOLONE], the IC50 result (against Endothelin-1 receptor; at Histamine H2 receptor (cho-k1); in test [1]; in test [2]; in test [3] (cho-k1); in test [4]) was “Not Active” throughout. In test [1], the Ki entry was “Not Active”.
With `CC[C@]1(O)C[C@@H]2CN(CCc3c([nH]c4ccccc34)[C@@](C(=O)OC)(c3cc4c(cc3OC)N(C)[C@H]3[C@@](O)(C(N)=O)[C@H](O)[C@]5(CC)C=CCN6CC[C@]43[C@@H]65)C2)C1` [VINDESINE], the IC50 result (at Endothelin-1 receptor; on Histamine H2 receptor (cho-k1); in test [1]; in test [2]; in test [3] (cho-k1); in test [4]) was “Not Active” in each case. The Ki entry in test [1] is listed as “Not Active”.
In the case of `CCN(C(C)=O)c1cccc(-c2ccnc3c(C#N)cnn23)c1` [ZALEPLON], the IC50 result (on Endothelin-1 receptor; against Histamine H2 receptor (cho-k1); in test [1]; in test [2]; in test [3] (cho-k1); in test [4]) was “Not Active” throughout. The Ki entry in test [1] is recorded as “Not Active”.
Take COBALTOUS CHLORIDE: the IC50 result (on Endothelin-1 receptor; against Histamine H2 receptor (cho-k1); in test [1]; in test [2]; in test [3] (cho-k1); in test [4]) was “Not Active” throughout. Moreover, the Ki entry (at Endothelin-1 receptor; on Histamine H2 receptor (cho-k1); in test [1]; in test [2]; in test [3] (cho-k1); in test [4]) was “Not Active” in each case.
With COLISTIN, the IC50 entry against Endothelin-1 receptor was “Not Active”; against Histamine H2 receptor (cho-k1), “Not Active”; in test [1], “Not Active”; in test [2], “Not Active”; in test [3] (cho-k1), “Not Active”; in test [4] (read-out: IC50) it was 0.959 µM. Also, the Ki result (at Endothelin-1 receptor; on Histamine H2 receptor (cho-k1); in test [1]; in test [2]; in test [3] (cho-k1)) was “Not Active” throughout.
